Measurements reported in PMC5750648, “Study of Statin- and Loratadine-Induced Muscle Pain Mechanisms Using Human Skeletal Muscle Cells” (Pharmaceutics, 2017).
Entries after “also recorded” stand apart in the source; their conditions may differ. Structures can show the parent of a compound that is named as a salt. Blank lines part the entries; values can stand above or below the compound they belong to.

What was measured:
SkMC = assay: Intracellular concentrations of statins and loratadine at the end of inhibition assays (HPLC-UV)
Method: Instruments used consisted of a SpectraSystem P4000 pump, a SpectraSystem AS3000 autosampler, a Finnigan SpectraSystem UV6000 ultraviolet detector and a SpectraSystem SN4000 System Controller from Thermo Electron Corporation (San Jose, CA, USA). An Agilent Zorbax Column, Eclipse XDB-C8, 4.6 mm × 150 mm (Agilent, Santa Clara, CA, USA) was used at a temperature of 40 °C. An isocratic mobile phase contained 10 mM ammonium formate pH 3 and acetonitrile with varying proportions, at a flow rate of 1.0 mL/min. Details for mobile phase proportions, internal standards and monitored UV wavelengths are listed in Supplementary Table S1.
After the final incubation, cells were washed twice with PBS 10% methanol and once with PBS alone. The cells were lysed with methanol containing appropriate internal standards for the compounds of interest, then transferred and centrifuged for 10 min at room temperature. The supernatant was transferred to a culture borosilicate glass tube, evaporated and reconstituted in 100 µL of 10 mM ammonium formate pH 3 and acetonitrile (50:50 v/v). A volume of 20 µL per sample was injected. The ChromQuest Version 4.2.34 software was used for data acquisition.

[1] = test system: MCT-mediated efflux transport of L-lactic acid (MCT1 and 4); assay: Inhibition of L-lactic acid efflux in SkMC (intracellular [14C] L-lactic acid accumulation); assay type: cell-based, human; settings: for Inhibitory effect on L-lactic acid efflux (in words): 0.25 to 300 µM
Method: Assessment of efflux transport. A similar approach was used to measure efflux transport of L-lactic acid. For these experiments, distribution equilibrium of L-lactic acid was reached by adding MES or HEPES (pH 7.0 or 7.4; 1 mL) containing 6 mM [^14C] L-lactic acid (0.2 µCi/mL). After 10 min (to allow L-lactic acid to reach equilibrium), MES or HEPES buffer containing [^14C] L-lactic acid was replaced by L-lactic acid-free buffer for 2.5 min. Transport was stopped by placing culture plates on ice, rapidly aspirating the media and cells were washed 3-times with ice-cold HEPES buffer. Cellular radioactivity levels were determined as previously described in the Method section (Assessment of influx transport).
At the beginning of the experiment (t = 0), medium was replaced by HEPES (pH 7.4; 1 mL) buffer to wash cells. After removing the wash buffer, cells were loaded with [^14C] L-lactic acid (6 mM, 0.2 µCi/mL) in MES or HEPES buffer (pH 7.0 or pH 7.4). Briefly, following pre-incubation of cells in buffer containing [^14C] L-lactic acid for 10 min (to allow L-lactic acid to reach equilibrium), the buffer was replaced by a buffer containing [^14C] L-lactic acid and the potential inhibitor. This mixture was incubated for an additional 3 min in order to allow diffusion of the inhibitor in the cells without perturbing L-lactic acid equilibrium. Then, cells were washed once rapidly with buffer containing the tested inhibitors or vehicle, but without L-lactic acid. In the final step, the tested inhibitors or vehicle were added to the L-lactic acid-free buffer and incubated for 2.5 min as described previously for the assessment of the efflux transport. Culture plates were placed on ice to stop the reaction. Inhibition of L-lactic acid efflux was determined by measuring intracellular [^14C] L-lactic acid concentration.

[2] = test system: L-lactic acid influx transport in SkMC; assay: Kinetic parameters of L-lactic acid influx transport in SkMC; assay type: cell-based, human
Method: After differentiation, and before the beginning of the transport experiments, cells were washed, and the medium replaced with HEPES (pH 7.4; 1 mL) buffer. Transport assays, including the pre-incubation period in HEPES, were performed at 37 °C. Assay conditions were previously optimized by standard incubations with L-lactic acid (e.g., incubation times). […] Assessment of influx transport. […] The suspension was passed through 27½ G needle 3-times. […] L-lactic acid concentrations.

[3] = set-up: method as in PMID 16453090; settings: Primo study; cited from earlier work
[4] = test system: MCT-mediated efflux transport of L-lactic acid (MCT1 and 4); assay: L-lactic acid efflux inhibition after six-day pretreatment of SkMC; assay type: cell-based, human; settings: inhibitor 300 µM
Method: At the beginning of the experiment (t = 0), medium was replaced by HEPES (pH 7.4; 1 mL) buffer to wash cells. […] Then, cells were washed once rapidly with buffer containing the tested inhibitors or vehicle, but without L-lactic acid. […] Culture plates were placed on ice to stop the reaction. Inhibition of L-lactic acid efflux was determined by measuring intracellular [^14C] L-lactic acid concentration.

Effect of pH on intracellular accumulation of the drug (SkMC; SkMC, pH 7.0 compared to pH 7.4): did not affect
SMILES: CCOC(=O)N1CCC(=C2c3ccc(Cl)cc3CCc3cccnc32)CC1 [Loratadine]

Uptake of the drug in SkMC (SkMC): did not have a significant uptake
SMILES: CC(C)c1nc(N(C)S(C)(=O)=O)nc(-c2ccc(F)cc2)c1/C=C/[C@@H](O)C[C@@H](O)CC(=O)O [rosuvastatin]
Inhibitory effect on L-lactic acid efflux (in words) ([1]; SkMC): No L-lactic acid efflux inhibition; also recorded: No significant inhibitory effect
Inhibitory effect on L-lactic acid transport (in words) ([1]; SkMC, pH 7.0): no significant inhibitory effect

Km ([2]; pH 7.0): 17 mM
Km ([2]; pH 7.4): 23 mM
SMILES: C[C@H](O)C(=O)O [L-lactic acid, L-lactic acid sodium salt]
Vmax of L-lactic acid influx transport ([2]; pH 7.0): 90 nmol/min/mg protein
Vmax of L-lactic acid influx transport ([2]; pH 7.4): 82 nmol/min/mg protein

SMILES: O=C(CCc1ccc(O)cc1)c1c(O)cc(O)cc1O [phloretin]
Maximal intracellular L-lactic acid augmentation ([1]; SkMC, pH 7.0, 1 to 300 µM tested): 2.1 fold
Maximal intracellular L-lactic acid augmentation ([1]; SkMC, pH 7.4, 1 to 300 µM tested): 2.2 fold

SMILES: CC(C)c1c(C(=O)Nc2ccccc2)c(-c2ccccc2)c(-c2ccc(F)cc2)n1CC[C@@H](O)C[C@@H](O)CC(=O)O [Atorvastatin]
Rate of patients experiencing muscular discomfort [3]: 14.9%

SMILES: CCC(C)(C)C(=O)O[C@H]1C[C@@H](C)C=C2C=C[C@H](C)[C@H](CC[C@@H](O)C[C@@H](O)CC(=O)O)[C@H]21 [Simvastatin hydroxy acid, simvastatin hydroxyl acid ammonium salt]
Intracellular lactic acid increase ([1]; SkMC (abstract)): 25–35%
Maximal increase of intracellular L-lactic acid ([1]; SkMC, 300 µM inhibitor): 35%
Inhibitory effect on L-lactic acid efflux (in words) ([1]; SkMC): weak inhibitory potency
Intracellular L-Lactic Acid Increase (%) ([4]; no pretreatment (Control), pH 7.4): 65%
Intracellular L-Lactic Acid Increase (%) ([4]; six-day pretreatment 0.033 µM, pH 7.0): 103%
Intracellular L-Lactic Acid Increase (%) ([4]; six-day pretreatment 0.033 µM, pH 7.4): 51%
Intracellular L-Lactic Acid Increase (%) ([4]; six-day pretreatment 0.1 µM, pH 7.0): 31%
Intracellular L-Lactic Acid Increase (%) ([4]; six-day pretreatment 0.1 µM, pH 7.4): 35%
